Test results reported in PMC5511861, “DS16570511 is a small-molecule inhibitor of the mitochondrial calcium uniporter” (Cell Death Discovery, 2017).

How the values were obtained:
[1] = system: mitochondrial Ca2+ levels in rat perfused heart; experiment: Mitochondrial Ca2+ overload in rat isolated perfused heart; conditions: 10 min pretreatment
Protocol: We investigated the effect of DS16570511 on mitochondrial Ca^2+ levels in a rat isolated perfused heart. In the normal condition of the perfusion assay, the Ca^2+ concentration of the perfusion buffer is 2.5 mM.[23] To induce mitochondrial Ca^2+ overload, Ca^2+ concentration in the perfusion buffer was increased from 2.5 mM to 5 mM or 7.5 mM.
Figure 6 DS16570511 inhibits mitochondrial Ca^2+ overload in isolated heart. Effect of DS16570511 on mitochondrial Ca^2+ levels in rat perfused heart. For induction of Ca^2+ overload in mitochondria ex vivo, Ca^2+ concentration was increased from 2.5 mM to 5 mM or 7.5 mM. The heart was treated with DS16570511 for 10 min before the high Ca^2+ treatment. Data are mean with S.E.M. from more than three independent samples.
The hearts were rapidly excised from 9-week-old male Wistar rats and perfused at 37 °C with Krebs-Ringer perfusion buffer (127.2 mM NaCl, 4.7 mM KCl, 2.5 mM CaCl2, 1.2 mM KH2PO4, 1.2 mM MgSO4, 25 mM NaHCO3 and 5.5 mM glucose (pH 7.4)) equilibrated with 95% O2/5% CO2. A balloon was inserted through the left atrium into the left ventricle. Heart rate and contractility were continuously recorded with a data acquisition system (PowerLab, ADInstruments, Bella Vista, NSW, Australia).

[2] = system: membrane potential of pig heart mitochondria; experiment: Mitochondrial membrane potential assay (JC-10) in pig heart mitochondria; assay type: biochemical; conditions: JC-10, 5 min incubation
Description: Next we analyzed the mechanism of action of DS16570511. The previous studies implicated two possible inhibitory mechanisms for the mitochondrial Ca^2+ uptake: (1) direct blockade of the calcium uniporter and (2) disruption of the membrane potential.[20],[21] Mitochondrial Ca^2+ uptake is mediated by electrical potential across the mitochondrial inner membrane, which is generated by the oxidative phosphorylation system. […] To examine effects on the mitochondrial membrane potential, fluorescent indicator JC-10 was used in mitochondria from pig heart.
(a) Effect of FCCP on Ca^2+ uptake of pig heart mitochondria. […] Relative membrane potential 0 or 100% is defined as value of 1 μM FCCP-treated mitochondria or vehicle-treated mitochondria, respectively. Data are mean with S.E.M. from three (a) or four (b) independent samples.
Pig heart mitochondria were prepared as described above and suspended in the swelling buffer containing 1 μM JC-10. The protein concentration of the solution was 5 mg/ml. Five minutes after incubation of the mitochondria with DS16570511 at room temperature, fluorescence intensities were measured by a FlexStation 3 (Molecular Devices, LLC, Sunnyvale, CA, USA) using the green channel (excitation/emission wavelength: 485/538 nm) or the red channel (excitation/emission wavelength: 485/612 nm).

[3] = target: T1, mitochondrial calcium uniporter (Homo sapiens, UniProt Q8NE86); experiment: Aequorin assay: serum-induced mitochondrial Ca2+ influx in HEK293A cells expressing mitochondria-targeted aequorin; assay type: cell-based; set-up: endogenous in cells; host or cells: HEK293A cells stably expressing mitochondria-targeted aequorin; conditions: 10% fetal bovine serum, 20 min pretreatment, read-out: IC50, inhibition of serum-induced mitochondrial Ca2+ influx
T1 sequence (Q8NE86 51-351): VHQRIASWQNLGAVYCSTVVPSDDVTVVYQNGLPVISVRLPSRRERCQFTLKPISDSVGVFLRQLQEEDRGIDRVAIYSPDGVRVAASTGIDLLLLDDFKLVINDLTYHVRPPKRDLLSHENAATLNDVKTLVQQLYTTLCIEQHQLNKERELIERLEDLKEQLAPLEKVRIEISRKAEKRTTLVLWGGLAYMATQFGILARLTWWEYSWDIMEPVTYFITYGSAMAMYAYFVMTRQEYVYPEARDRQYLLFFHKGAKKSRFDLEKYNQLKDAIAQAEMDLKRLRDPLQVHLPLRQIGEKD
T1 sequence (Q9H4I9 48-107 partner limits assumed): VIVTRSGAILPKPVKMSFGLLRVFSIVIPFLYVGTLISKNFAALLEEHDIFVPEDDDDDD
Protocol: (§1) In the first screening using the cell-based assay, application of 10% fetal bovine serum to the cells triggered a rapid increase of mitochondrial Ca^2+ level (Figure 1a). Pretreatment of the cells with DS16570511 inhibited the serum-induced mitochondrial Ca^2+ influx with an IC50 of 7 μM (Figures 1a and b). In order to eliminate broad channel inhibitors or chemicals affecting the aequorin-based detection system, a counter assay was carried out using HEK293A cells expressing aequorin in cytosol. In the assay, the concentration of DS16570511 used to decrease the serum-induced cytosolic Ca^2+ increase by 50% was ~50 μM.
Figure 1 DS16570511 inhibits mitochondrial Ca^2+ influx in HEK293A cells. (a) Representative raw data of serum-induced mitochondrial Ca^2+ influx in HEK293A cells. (b) Effect of DS16570511 on serum-induced mitochondrial Ca^2+ influx. The area under the curve of temporal aequorin activities is used for calculation of inhibitory activities. […]
For dynamic measurements of mitochondrial Ca^2+ levels in intact cells, HEK293A cells were stably transfected with pIRES-puro vector expressing mitochondria-targeted aequorin.[20] […] For induction of intracellular Ca^2+, the cells were treated with 10% fetal bovine serum, and luminescence levels were measured by using a Centro LB960 luminometer (Berthold Technologies, Oak Ridge, TN, USA).

[4] = system: serum-induced cytosolic Ca2+ increase in HEK293A cells; experiment: Counter assay: serum-induced cytosolic Ca2+ increase in HEK293A cells expressing aequorin in cytosol; assay type: cell-based, human; conditions: read-out: concentration used to decrease the serum-induced cytosolic Ca2+ increase by 50%
Protocol: as §1
For dynamic measurements of mitochondrial Ca^2+ levels in intact cells, HEK293A cells were stably transfected with pIRES-puro vector expressing mitochondria-targeted aequorin.[20] One day after plating on a 15-cm dish (8×10^6 cells/dish), the cells were harvested and incubated with 2.5 μM coelenterazine h in aequorin assay buffer (200 mM Hanks Balanced Salt Solution, 25 mM HEPES (pH 7.0) and 0.1% bovine serum albumin) for 2 h at room temperature. The cells (8.1×10^4 cells/well) were then treated with DS16570511 for 20 min in a 96-well plate at room temperature. For induction of intracellular Ca^2+, the cells were treated with 10% fetal bovine serum, and luminescence levels were measured by using a Centro LB960 luminometer (Berthold Technologies, Oak Ridge, TN, USA).

In the case of `Cc1onc(-c2c(Cl)cccc2Cl)c1CNc1cccc(C(=O)c2cn(CCCC(=O)O)c3ccccc23)c1` [DS16570511], the “effect on mitochondrial Ca2+ level, normal buffer” value ([1]; 2.5 mM Ca2+ buffer, 30 μM) is reported as “no significant effect”, the “effect on mitochondrial Ca2+ increase induced by 5.0 mM Ca2+ buffer” value ([1]; 5.0 mM Ca2+ buffer) is reported as “blocked” and the “effect on mitochondrial Ca2+ overload induced by 7.5 mM Ca2+ buffer” value ([1]; 7.5 mM Ca2+ buffer) is reported as “dose-dependently inhibited”. The “effect on mitochondrial membrane potential” value [2] was “not reduced”, the IC50 [3] was 7 µM and the IC50 [4] was about 50 µM.
